≈ marks a conversion by molar mass, not a printed value. Like-named read-outs stand apart in the source and are kept apart here.

Series [1] is described as follows: Redox / oxidation potentials stated in the description without method. As to conditions: no method given. It counts as physicochemical.
A short description of series [2]: Solubility of mediator in water, evaluated visually. As to conditions: for solubility: thermodynamic from solid, Table 1, water at 25° C., evaluated visually. The format is physicochemical. How it is done: Potassium ferricyanide, 9,10-phenanthrenequinone, and sodium 9,10-phenanthrene-quinone-2-sulfonate were weighed out, and water was added to them. The solubility in water at 25° C. was evaluated visually.

For series [3] the following is noted: background statement, cited from earlier work.
A short description of series [4]: Redox potential by cyclic voltammetry (glassy carbon working electrode, Ag|AgCl reference). The format is physicochemical. To be noted: for Eox (V), potential value at the peak oxidation current / Ered (V), potential value at the peak reduction current: 1 mM in 100 mM phosphate buffer pH 7, sweep 0.1 V/second; for E0′ (V) [(Ered + Eox)/2], redox potential: average of Ered and Eox. How it is done:
Potassium ferricyanide and sodium 9,10-phenanthrenequinone-2-sulfonate were each dissolved in an amount of 1 mM in a 100 mM phosphate buffer (pH 7), to prepare a potassium ferricyanide aqueous solution and a sodium 9,10-phenanthrenequinone-2-sulfonate aqueous solution.
These aqueous solutions were used to measure the redox potential by cyclic voltammetry for potassium ferricyanide and sodium 9,10-phenanthrenequinone-2-sulfonate. More specifically, the electrodes used here were as follows. • working electrode: glassy carbon electrode • counter electrode: platinum wire • reference electrode: silver/silver chloride (saturated potassium chloride) electrode (hereinafter referred to as Ag|AgCl).
A potentiostat was used for measurement. The various electrodes and the potentiostat were types commonly used in electrochemistry. This equipment can be purchased from BAS, for example.
The cyclic voltammetry involved searching for the potential applied to the working electrode, linearly with respect to time. The sweep rate was set to 0.1 V/second. First, a first potential was applied to the working electrode, and the electrode potential was swept to the negative side from the starting potential to a second potential that was more negative. Then, sweep was performed in which the electrode potential was flipped back to the positive side from the second potential to the first potential.
The first and second potentials were 0.7 V and −0.3 V, respectively, in the case of potassium ferricyanide, and were 0.2 V and −0.5 V in the case of sodium 9,10-phenanthrenequinone-2-sulfonate.
The potential discussed next is the potential with respect to Ag|AgCl.
If we calculate the redox potential as the average value [(Ered+Eox)/2] of the potential value at the peak oxidation current (Eox) and the potential value at the peak reduction current (Ered), the redox potential for the sodium 9,10-phenanthrenequinone-2-sulfonate is −150 mV and the redox potential for potassium ferricyanide is 225 mV. Thus, the redox potential for sodium 9,10-phenanthrenequinone-2-sulfonate measured using Ag|AgCl as a reference electrode was negative.
Also, compounds A, B, H′, I, I′, and J and disodium 9,10-phenanthrenequinone-2,7-disulfonate were subjected to cyclic voltammetry by the same operation as in FIG. 4. […]

Where [5] appears, read: FIG. 4, vs Ag|AgCl, 100 mM phosphate buffer pH 7.

Consider `O=C1C=C(S(=O)(=O)O)c2ccccc2C1=O` [1,2-naphthoquinone-4-sulfonic acid], for which, in series [1], the “redox potential of mediators pertaining to the invention” value (from here on “redox potential of mediators pertaining”) is given as −16 mV.

As for `O=C1C(=O)c2cc(S(=O)(=O)O)ccc2-c2ccccc21` [9,10-phenanthrenequinone-2-sulfonic acid], in series [1], the “redox potential of mediators pertaining” value was −140 mV.

What is called solubility is the dissolved amount per volume that the medium holds. Lower therefore signals a poorly soluble substance. Regarding `O=C1C(=O)c2ccccc2-c2ccccc21` [9,10-phenanthrenequinone], the solubility in series [2] is below 1 mM. The “redox potential of mediators pertaining” value in series [1] was −180 mV.

For `Cc1cc2nc3c(=O)[nH]c(=O)nc-3n(C[C@H](O)[C@H](O)[C@H](O)COP(=O)(O)OP(=O)(O)OC[C@H]3O[C@@H](n4cnc5c(N)ncnc54)[C@H](O)[C@@H]3O)c2cc1C` [FAD, flavin adenine dinucleotide], in series [3], the “redox potential of coenzymes and prior-art mediator” value is listed as “approximately −300 mV”.

Turning to `O=C(O)c1cc(C(=O)O)c2c(n1)C(=O)C(=O)c1cc(C(=O)O)[nH]c1-2` [PQQ, pyrroloquinoline quinone], in series [3], the “redox potential of coenzymes and prior-art mediator” value is listed as “approximately −200 mV”.

On to `O=C1O[C@H]([C@@H](O)CO)C(O)=C1O` [ascorbic acid], for which the oxidation potential entry in series [3] (vs. Ag|AgCl) is “approximately −140 mV”.

Regarding `O=C1C(=O)c2cc([N+](=O)[O-])ccc2-c2ccccc21` [compound A], the Solubility in water in series [2] (Table 2) was 1 mM (≈ 253 µg/mL). In series [4] (vs Ag|AgCl), the “Eox (V), potential value at the peak oxidation current” value (from here on “Eox (V), potential value”) is reported as −0.10 V; the “Ered (V), potential value at the peak reduction current” value (from here on “Ered … at the peak reduction current”) is on record as −0.13 V; the “E0′ (V) [(Ered + Eox)/2], redox potential” value is −0.12 V.

In the case of `Nc1ccc2c(c1)C(=O)C(=O)c1ccccc1-2` [compound B], in series [2], the Solubility in water amounted to 1 mM (≈ 223 µg/mL). Further, in series [4] (vs Ag|AgCl), the “Eox (V), potential value” value is listed as −0.19 V; the “Ered … at the peak reduction current” value is −0.23 V; the “E0′ (V) [(Ered + Eox)/2], redox potential” value is listed as −0.21 V.

Regarding `O=C1C(=O)c2cc(-c3ccc(S(=O)(=O)[O-])cc3)ccc2-c2ccccc21.[Na+]` [compound H′], the Solubility in water in series [2] (Table 2) is 20 mM. Also, in series [4] (vs Ag|AgCl), the “Eox (V), potential value” value is on record as −0.14 V; the “Ered … at the peak reduction current” value was −0.21 V; the “E0′ (V) [(Ered + Eox)/2], redox potential” value is on record as −0.18 V.

`O=C([O-])c1ccc(-c2ccc3c(c2)C(=O)C(=O)c2ccccc2-3)cc1.[Na+]` [compound I] had a Solubility in water in series [2] (Table 2) of 5 mM. In addition, in series [4] (vs Ag|AgCl), the “Eox (V), potential value” value is recorded as −0.14 V; the “Ered … at the peak reduction current” value is −0.22 V; the “E0′ (V) [(Ered + Eox)/2], redox potential” value is −0.18 V.

With `O=C(NCCS(=O)(=O)[O-])c1ccc(-c2ccc3c(c2)C(=O)C(=O)c2ccccc2-3)cc1.[Na+]` [compound I′], the Solubility in water in series [2] (Table 2) is listed as 20 mM. For the same compound, in series [4] (vs Ag|AgCl), the “Eox (V), potential value” value was −0.14 V; the “Ered … at the peak reduction current” value is listed as −0.22 V; the “E0′ (V) [(Ered + Eox)/2], redox potential” value is −0.18 V.

In series [2] (Table 2), `O=C([O-])c1cc(C(=O)[O-])cc(-c2ccc3c(c2)C(=O)C(=O)c2ccccc2-3)c1.[Na+].[Na+]` [compound J] came in with a Solubility in water of 50 mM. In series [4] (vs Ag|AgCl), the “Eox (V), potential value” value is given as −0.15 V; the “Ered … at the peak reduction current” value is −0.23 V; the “E0′ (V) [(Ered + Eox)/2], redox potential” value is recorded as −0.19 V.

Take `O=C1C(=O)c2cc(S(=O)(=O)[O-])ccc2-c2ccc(S(=O)(=O)[O-])cc21.[Na+].[Na+]` [disodium 9,10-phenanthrenequinone-2,7-disulfonate]: in series [2] (Table 2), the Solubility in water result was “over 200 mM”. Besides, in series [4] (vs Ag|AgCl), the “Eox (V), potential value” value is reported as −0.06 V; the “Ered … at the peak reduction current” value is −0.18 V; the “E0′ (V) [(Ered + Eox)/2], redox potential” value is −0.12 V.

Turning to `O=C1C(=O)c2cccnc2-c2ncccc21` [phenanthroline quinone], the “redox potential of coenzymes and prior-art mediator” value in series [3] is “approximately 0 mV”.

As for `O=C1C(=O)c2cc(S(=O)(=O)[O-])ccc2-c2ccccc21.[Na+]` [sodium 9,10-phenanthrenequinone-2-sulfonate], in series [2], the “Solubility in water (in words)” value was “good solubility” and the solubility is above 80 mM. In series [4] (vs Ag|AgCl), the “Eox (V), potential value” value is −0.12 V; the “Ered … at the peak reduction current” value is given as −0.18 V; the “redox potential [(Ered+Eox)/2]” value is −150 mV; the “E0′ (V) [(Ered + Eox)/2], redox potential” value is −0.15 V. Besides, in series [4] (setting [5]), the “potential at the peak oxidation current” value was −120 mV and the “potential at the peak reduction current” value is recorded as −180 mV. In addition, the “redox reaction with a glassy carbon electrode” value in series [4] (cyclic voltammetry) was “quickly and reversibly”. Moreover, in series [4] (difference to potassium ferricyanide), the “redox potential lower than that of potassium ferricyanide” value was “about 400 mV”.

Source of the values: patent US11639912B2, “Sensor and concentration measurement method” (PHC Holdings Corporation, priority 2009, dated 2023).
